PubChem BioAssay (NCI)
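Grown in 96-well plates, cells were treated for 48 hours with each compound at five concentrations. Insufficient inhibition: endpoint recorded as highest concentration tested. At the TGI there is no net growth.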

What was measured:
Test in all cases: NCI tumour cell line growth inhibition, 48 h
786-0 renal = tested on: 786-0 renal
A498 renal = tested on: A498 renal
A549 NSCLC = tested on: A549 NSCLC
ACHN renal = tested on: ACHN renal
BT-549 breast = tested on: BT-549 breast
CAKI-1 renal = tested on: CAKI-1 renal
COLO 205 colon = tested on: COLO 205 colon
DU-145 prostate = tested on: DU-145 prostate
EKVX NSCLC = tested on: EKVX NSCLC
HCC-2998 colon = tested on: HCC-2998 colon
HCT-116 colon = tested on: HCT-116 colon
HCT-15 colon = tested on: HCT-15 colon
HOP-62 NSCLC = tested on: HOP-62 NSCLC
HOP-92 NSCLC = tested on: HOP-92 NSCLC
HS 578T breast = tested on: HS 578T breast
HT29 colon = tested on: HT29 colon
IGROV1 ovarian = tested on: IGROV1 ovarian
K-562 leukemia = tested on: K-562 leukemia
KM12 colon = tested on: KM12 colon
LOX IMVI melanoma = tested on: LOX IMVI melanoma
M14 melanoma = tested on: M14 melanoma
MCF7 breast = tested on: MCF7 breast
MDA-MB-231 breast = tested on: MDA-MB-231 breast
MDA-MB-435 = tested on: MDA-MB-435
MDA-N = tested on: MDA-N
MOLT-4 leukemia = tested on: MOLT-4 leukemia
NCI-H226 lung = tested on: NCI-H226 lung
NCI-H23 lung = tested on: NCI-H23 lung
NCI-H460 lung = tested on: NCI-H460 lung
NCI-H522 lung = tested on: NCI-H522 lung
OVCAR-3 ovarian = tested on: OVCAR-3 ovarian
OVCAR-4 ovarian = tested on: OVCAR-4 ovarian
OVCAR-5 ovarian = tested on: OVCAR-5 ovarian
OVCAR-8 ovarian = tested on: OVCAR-8 ovarian
PC-3 prostate = tested on: PC-3 prostate
RPMI-8226 leukemia = tested on: RPMI-8226 leukemia
RXF 393 renal = tested on: RXF 393 renal
SF-268 CNS = tested on: SF-268 CNS
SF-295 CNS = tested on: SF-295 CNS
SF-539 CNS = tested on: SF-539 CNS
SK-MEL-2 melanoma = tested on: SK-MEL-2 melanoma
SK-MEL-28 melanoma = tested on: SK-MEL-28 melanoma
SK-MEL-5 melanoma = tested on: SK-MEL-5 melanoma
SK-OV-3 ovarian = tested on: SK-OV-3 ovarian
SN12C renal = tested on: SN12C renal
SNB-19 CNS = tested on: SNB-19 CNS
SNB-75 CNS = tested on: SNB-75 CNS
SW-620 colon = tested on: SW-620 colon
T-47D breast = tested on: T-47D breast
TK-10 renal = tested on: TK-10 renal
U251 CNS = tested on: U251 CNS
UACC-257 melanoma = tested on: UACC-257 melanoma
UACC-62 melanoma = tested on: UACC-62 melanoma
UO-31 renal = tested on: UO-31 renal
CCRF-CEM leukemia = tested on: CCRF-CEM leukemia
MALME-3M melanoma = tested on: MALME-3M melanoma
NCI/ADR-RES ovarian = tested on: NCI/ADR-RES ovarian
SR leukemia = tested on: SR leukemia

Measured: TGI

CC(C)(O)C1CC(=O)C(C)(C2C(O)CC3(C)C4CC=C5C(CCC(O)C5(C)C)C4(C)C(=O)CC23C)O1 (centres undefined)
> 100 µM: 786-0 renal | A498 renal | A549 NSCLC | ACHN renal | BT-549 breast | CAKI-1 renal | COLO 205 colon | DU-145 prostate | EKVX NSCLC | HCC-2998 colon | HCT-116 colon | HCT-15 colon | HOP-62 NSCLC | HOP-92 NSCLC | HS 578T breast | HT29 colon | IGROV1 ovarian | K-562 leukemia | KM12 colon | LOX IMVI melanoma | M14 melanoma | MCF7 breast | MDA-MB-231 breast | MDA-MB-435 | MDA-N | MOLT-4 leukemia | NCI-H226 lung | NCI-H23 lung | NCI-H460 lung | NCI-H522 lung | OVCAR-3 ovarian | OVCAR-4 ovarian | OVCAR-5 ovarian | OVCAR-8 ovarian | PC-3 prostate | RPMI-8226 leukemia | RXF 393 renal | SF-268 CNS | SF-295 CNS | SF-539 CNS | SK-MEL-2 melanoma | SK-MEL-28 melanoma | SK-MEL-5 melanoma | SK-OV-3 ovarian | SN12C renal | SNB-19 CNS | SNB-75 CNS | SW-620 colon | T-47D breast | TK-10 renal | U251 CNS | UACC-257 melanoma | UACC-62 melanoma | UO-31 renal

COC[C@@H](N=Cc1ccc(OC)cc1)C(C)C
> 100 µM: 786-0 renal | A549 NSCLC | ACHN renal | BT-549 breast | CAKI-1 renal | CCRF-CEM leukemia | COLO 205 colon | DU-145 prostate | EKVX NSCLC | HCT-116 colon | HCT-15 colon | HOP-62 NSCLC | HS 578T breast | HT29 colon | IGROV1 ovarian | K-562 leukemia | KM12 colon | LOX IMVI melanoma | M14 melanoma | MALME-3M melanoma | MCF7 breast | MDA-MB-435 | MDA-N | MOLT-4 leukemia | NCI-H23 lung | NCI-H460 lung | NCI-H522 lung | NCI/ADR-RES ovarian | OVCAR-4 ovarian | OVCAR-5 ovarian | OVCAR-8 ovarian | PC-3 prostate | RPMI-8226 leukemia | RXF 393 renal | SF-268 CNS | SF-295 CNS | SK-MEL-2 melanoma | SK-MEL-28 melanoma | SK-MEL-5 melanoma | SK-OV-3 ovarian | SN12C renal | SNB-75 CNS | SR leukemia | SW-620 colon | T-47D breast | TK-10 renal | U251 CNS | UACC-257 melanoma | UACC-62 melanoma | UO-31 renal
